Results reported in article PMC4731763, “Naturally occurring proteinaceous nanoparticles in Coptidis Rhizoma extract act as concentration-dependent carriers that facilitate berberine absorption” (Scientific Reports, 2016).
Where two headings read alike, the source gives them in different places.

Experiments:
P-gp = details: cited from earlier work
[1] = Pharmacokinetics in mice: plasma berberine exposure after oral administration; format: in vivo; details: both sexes, Kun-Ming, mouse
Procedure: A Shimadzu Prominence UFLCXR series HPLC (Shimadzu, Japan) and a Thermo Scientific TSQ Quantum Ultra mass spectrometer (Thermo Scientific, Waltham, MA, USA) equipped with an electrospray ionization (ESI) source were used. The samples were precipitated with 3 volumes of acetonitrile. Carbamazepine was used as the internal standard. After centrifugation (24,000 g, 6 min, 4 °C), the supernatant was mixed with an equal volume of water and 10-μL samples were injected into the LC-MS/MS system. The samples were eluted through a Hypersil Gold (C18) analytical column (5 μm, 100 × 2.1 mm) with a gradient of the aqueous phase (0.08% v/v formic acid and 2 mM ammonium acetate) and the acetonitrile phase (0 min, 85:15; 7 min, 32:68; 7.01 min, 85:15; 10 min, 85:15) at a flow rate of 0.3 mL/min. The ESI source was set to positive ion mode. Data acquisition was performed in the multiple reaction monitoring mode of the selective mass transition for each compound. The transitions from the precursor ions to the protonated fragment product ions were monitored: m/z 336.15 → m/z 322.28 for berberine and m/z 237.00 → m/z 194.31 for carbamazepine. The linear dynamic range for berberine in the tested biological samples was 0.5 to 500 ng/mL. […] The accuracy, precision, recovery, and stability tests all met the requirements of quantitative determination in biological samples. […]

mice = details: mouse, in vivo
Procedure: The mice (n = 20 mice per group, 10 males and 10 females) were orally administered the test materials and the reactions of the mice were recorded for 7 days. Using this method, the acute oral toxicities of the following materials were tested at the dose volume of 0.2 mL/10 g body weight (dissolved in water) and compared: (1) the Coptidis Rhizoma extract (1 or 3 g/kg); (2) the supernatant of the Coptidis Rhizoma extract (3 g/kg) after centrifugation (300,000 g, 30 min, 4 °C); (3) pure berberine (206 or 618 mg/kg, equal to the dose of berberine in the 1 and 3 g/kg extracts, respectively); (4) alkaloid extract of Coptidis Rhizoma (1259 mg/kg, equal to the dose of berberine in the 3 g/kg extract).

[2] = set-up: method as in PMID 20138204; details: cited from earlier work

Structure (SMILES)	Effect on P-gp (P-gp)	AUC(0-t) ([1]; 206 mg/kg pure berberine, read-out: Plasma berberine AUC0–24 h) [ng·h/mL]	AUC(0-t) ([1]; 618 mg/kg pure berberine, read-out: Plasma berberine AUC0–4 h) [ng·h/mL]	Acute oral toxicity (survival of mice) (mice; 206 mg/kg)	Acute oral toxicity (reaction or death of mice) (mice; 618 mg/kg)	Toxicity in vivo after oral administration [2]	P-gp substrate status (P-gp)
COc1cc([C@H]2Oc3cc(-c4cc(=O)c5c(O)cc(O)cc5o4)cc(OC)c3O[C@@H]2CO)ccc1O (racemic) [5′-methoxyhydnocarpin]	inhibitory effects on P-gp						
COc1ccc2cc3[n+](cc2c1OC)CCc1cc2c(cc1-3)OCO2 [pure berberine, berberine]		722	22.1	survived	did not show toxic reactions	weak toxicity	P-gp substrate
